Bounds are passed on as bounds.

The test relates to Plasmodium berghei. Kind of test: Luciferase/luciferin-expressing antifolate-resistant parasites were used to infect a culture of HepG2 cells that were pre-incubated with compounds. Infected hepatocytes emit light due to the luciferase reaction. Assay results are presented as the percent inhibition of light emission compared to control. […]. The conditions noted are these: sporozoite; for IC90: read-out: LUCIFERASE INFECTION ASSAY - IC90. Type of test: functional.

For `CCCn1c(NC(=O)c2ccccc2SCc2c(C)noc2C)nc2ccccc21`, the IC90 – broadly, the concentration needed for an effect of 90% – turned out to be 9.89 µM. In addition, the IC50 (commonly the concentration needed to halve the response being measured) (FFLUC_HILL_SLOPE 30, FFLUC_R_SQUARED 0.401, HEPG2TOX_HILL_SLOPE 7.23, HEPG2TOX_R_SQUARED 0.341, PBLUC_HILL_SLOPE 15.1, PBLUC_R_SQUARED 0.618, read-out: LUCIFERASE INFECTION ASSAY - IC50) is 8.55 µM.
Turning to `CC(C)[C@H](NS(=O)(=O)c1ccc2c(c1)OCCO2)C(=O)Nc1nc(-c2ccc(F)c(F)c2)cs1`, the IC90 was over 10 µM. Also, the 50% inhibitory concentration (IC50) (FFLUC_HILL_SLOPE 26.7, FFLUC_R_SQUARED 0.287, HEPG2TOX_HILL_SLOPE 3.72, HEPG2TOX_R_SQUARED 0.958, PBLUC_HILL_SLOPE 3.86, PBLUC_R_SQUARED 0.4, read-out: LUCIFERASE INFECTION ASSAY - IC50) worked out at 6.43 µM.
For `CCOC(=O)c1cc(C#N)c(Sc2n[nH]c(=O)n2Cc2ccc(C(F)(F)F)cc2)nc1C`, the 90% effect concentration (IC90) was over 7.12 µM. Moreover, where the note is “FFLUC_HILL_SLOPE 26.6, FFLUC_R_SQUARED 0.376, read-out: LUCIFERASE INFECTION ASSAY - IC50”, the half-inhibitory concentration (IC50) was over 7.12 µM.
On to `Oc1cccnc1NC(c1ccc(Br)cc1)c1ccc2cccnc2c1O` (stereo unspecified), for which the IC90 is 7.73 µM. Further, the concentration for half-maximal inhibition (IC50) (FFLUC_HILL_SLOPE 24.2, FFLUC_R_SQUARED 0.301, HEPG2TOX_HILL_SLOPE 1.67, HEPG2TOX_R_SQUARED 0.953, PBLUC_HILL_SLOPE 5.65, PBLUC_R_SQUARED 0.637, read-out: LUCIFERASE INFECTION ASSAY - IC50) worked out at 5.24 µM.
For the molecule `O=C(CSc1nnc(Nc2ccc(SC(F)F)cc2)s1)c1cccs1`, the concentration for an effect of 90% (IC90) is over 10 µM. For the setting “FFLUC_HILL_SLOPE 26.5, FFLUC_R_SQUARED 0.442, read-out: LUCIFERASE INFECTION ASSAY - IC50”, the concentration for half-maximal inhibition (IC50) is over 10 µM.
On to `CCOC(=O)c1sc(SCc2ccccc2)c2c1CC(c1ccc(C)cc1)CC2O` (stereo unspecified), for which the IC90 was over 7.52 µM. The IC50 (FFLUC_HILL_SLOPE 27.4, FFLUC_R_SQUARED 0.148, read-out: LUCIFERASE INFECTION ASSAY - IC50) was over 7.52 µM.
In the case of `C=C1S/C(=N\c2ccccc2OC)N(C(=O)c2c(-c3ccccc3Cl)noc2C)C12CCCCC2`, the concentration for an effect of 90% (IC90) is over 6.5 µM. For the same molecule, the IC50 (FFLUC_HILL_SLOPE 28.3, FFLUC_R_SQUARED 0.328, HEPG2TOX_HILL_SLOPE 0.898, HEPG2TOX_R_SQUARED 0.613, PBLUC_HILL_SLOPE 1.13, PBLUC_R_SQUARED 0.144, read-out: LUCIFERASE INFECTION ASSAY - IC50) worked out at 3.72 µM.
For the molecule `O=C1C=C(c2ccccc2)C(=O)N1c1cccc(Cl)c1`, the IC90 was over 11.6 µM. The half-inhibitory concentration (IC50) (FFLUC_HILL_SLOPE 29.2, FFLUC_R_SQUARED 0.289, PBLUC_HILL_SLOPE 11, PBLUC_R_SQUARED 0.329, read-out: LUCIFERASE INFECTION ASSAY - IC50) came out at 11.3 µM.
`Clc1ccc(C2=NN=C/C2=N\Nc2ccccc2)cc1`: the 90% effect concentration (IC90) was over 11.7 µM. Further, where the note is “FFLUC_HILL_SLOPE 24, FFLUC_R_SQUARED 0.142, HEPG2TOX_HILL_SLOPE 12.3, HEPG2TOX_R_SQUARED 0.867, PBLUC_HILL_SLOPE 2.49, PBLUC_R_SQUARED 0.792, read-out: LUCIFERASE INFECTION ASSAY - IC50”, the 50% inhibitory concentration (IC50) is 5.52 µM.
Consider `C=S(=O)(NC(=O)CSc1nnc(C(F)(F)F)n1C)c1ccc(Cl)cc1` (stereo unspecified), for which the IC90 was over 7.99 µM. Moreover, under “FFLUC_HILL_SLOPE 23.5, FFLUC_R_SQUARED 0.129, read-out: LUCIFERASE INFECTION ASSAY - IC50”, the IC50 was over 7.99 µM.
In the case of `COC(=O)c1cccc(S(=O)(=O)Oc2cc3ccccc3cc2C(=O)Nc2cc(C)ccc2OC)c1`, the IC90 was over 10 µM. Also, the IC50 (FFLUC_HILL_SLOPE 26.2, FFLUC_R_SQUARED 0.533, PBLUC_HILL_SLOPE 4.23, PBLUC_R_SQUARED 0.622, read-out: LUCIFERASE INFECTION ASSAY - IC50) was determined as 8.38 µM.
On to `CCC(C)c1ccc(-n2c(SCC(=O)N3c4ccccc4CC3C)nc3ccccc3c2=O)cc1` (stereo unspecified), for which the concentration for an effect of 90% (IC90) came out at 9.46 µM. In addition, the half-inhibitory concentration (IC50) (FFLUC_HILL_SLOPE 26.9, FFLUC_R_SQUARED 0.3, PBLUC_HILL_SLOPE 22.4, PBLUC_R_SQUARED 0.296, read-out: LUCIFERASE INFECTION ASSAY - IC50) turned out to be 8.58 µM.
Turning to `Cn1nc(-c2ccc(Cl)cc2)cc1N`, the 90% effect concentration (IC90) was over 15.9 µM. For the same molecule, for the setting “FFLUC_HILL_SLOPE 24.2, FFLUC_R_SQUARED 0.094, read-out: LUCIFERASE INFECTION ASSAY - IC50”, the 50% inhibitory concentration (IC50) is over 15.9 µM.
As to `Cc1cc(NC(=O)c2ccc(CSCc3c(Cl)cccc3Cl)cc2)no1`, the IC90 is 1.31 µM. The IC50 (FFLUC_HILL_SLOPE 28.8, FFLUC_R_SQUARED 0.69, PBLUC_HILL_SLOPE 8.08, PBLUC_R_SQUARED 0.529, read-out: LUCIFERASE INFECTION ASSAY - IC50) was 0.997 µM.
With `CC(=O)n1ncc(Sc2ccc(Cl)cc2)c1-c1ccc(Cl)cc1`, the IC90 was over 9.08 µM. The half-maximal inhibitory concentration (IC50) (FFLUC_HILL_SLOPE 25.1, FFLUC_R_SQUARED 0.0752, read-out: LUCIFERASE INFECTION ASSAY - IC50) is over 9.08 µM.
For `CN(C)c1ccc(C(c2ccc(OC(F)(F)F)cc2)c2ccc(N(C)C)cc2)cc1`, the IC90 stood at 3.56 µM. In addition, the IC50 (FFLUC_HILL_SLOPE 27.2, FFLUC_R_SQUARED 0.132, HEPG2TOX_HILL_SLOPE 6.02, HEPG2TOX_R_SQUARED 0.417, PBLUC_HILL_SLOPE 10.6, PBLUC_R_SQUARED 0.521, read-out: LUCIFERASE INFECTION ASSAY - IC50) was found to be 2.89 µM.
Consider `O=C(Nc1nc2ccccn2c1C(=O)NC1CCCC1)c1ccc(F)c(F)c1`, for which the concentration for an effect of 90% (IC90) came out at 3.18 µM. The half-maximal inhibitory concentration (IC50) (FFLUC_HILL_SLOPE 26.5, FFLUC_R_SQUARED 0.0302, HEPG2TOX_HILL_SLOPE 1.05, HEPG2TOX_R_SQUARED 0.954, PBLUC_HILL_SLOPE 2.57, PBLUC_R_SQUARED 0.624, read-out: LUCIFERASE INFECTION ASSAY - IC50) stood at 1.35 µM.
Take `CCCCNC(=O)c1c(NC(=O)c2ccc(F)c(F)c2)nc2ccccn12`: the concentration for an effect of 90% (IC90) came to 0.748 µM. Besides, the half-maximal inhibitory concentration (IC50) (FFLUC_HILL_SLOPE 25.4, FFLUC_R_SQUARED 0.228, HEPG2TOX_HILL_SLOPE 1.03, HEPG2TOX_R_SQUARED 0.844, PBLUC_HILL_SLOPE 2.52, PBLUC_R_SQUARED 0.719, read-out: LUCIFERASE INFECTION ASSAY - IC50) stood at 0.313 µM.
Consider `CCOC(=O)c1c(-c2ccccc2)csc1NC(=O)c1cc(-c2ccco2)nc2ccccc12`, for which the 90% effect concentration (IC90) was found to be 9.72 µM. Further, the IC50 (FFLUC_HILL_SLOPE 28.5, FFLUC_R_SQUARED 0.474, PBLUC_HILL_SLOPE 2.84, PBLUC_R_SQUARED 0.759, read-out: LUCIFERASE INFECTION ASSAY - IC50) came to 4.48 µM.
`O=C(N1CCC(C(c2ccccc2)c2ccccc2)CC1)C(Cl)(Cl)Cl`: the IC90 was over 8.32 µM. In addition, the IC50 (FFLUC_HILL_SLOPE 23.3, FFLUC_R_SQUARED 0.47, HEPG2TOX_HILL_SLOPE 6.45, HEPG2TOX_R_SQUARED 0.799, read-out: LUCIFERASE INFECTION ASSAY - IC50) is over 8.32 µM.
With `Cc1ccc2nc(NC(=O)c3cccc(Cl)c3)c(C(=O)NC3CCCC3)n2c1`, the IC90 was 1.47 µM. For the same molecule, the IC50 (FFLUC_HILL_SLOPE 23.2, FFLUC_R_SQUARED 0.442, HEPG2TOX_HILL_SLOPE 1.26, HEPG2TOX_R_SQUARED 0.897, PBLUC_HILL_SLOPE 7.29, PBLUC_R_SQUARED 0.437, read-out: LUCIFERASE INFECTION ASSAY - IC50) worked out at 1.09 µM.
In the case of `Cc1c(C(=O)N2CCCCC2)sc2nc(-c3ccc(Cl)cc3)nn12`, the IC90 was 8.36 µM. Further, the concentration for half-maximal inhibition (IC50) (FFLUC_HILL_SLOPE 28.1, FFLUC_R_SQUARED 0.294, PBLUC_HILL_SLOPE 1.44, PBLUC_R_SQUARED 0.531, read-out: LUCIFERASE INFECTION ASSAY - IC50) came out at 1.82 µM.
With `Cc1ccc(N2C(=O)/C(=C/c3ccc(C(C)C)cc3)N=C2SCC(=O)C23CC4CC(CC(C4)C2)C3)cc1`, the IC90 was over 10 µM. Moreover, the IC50 (FFLUC_HILL_SLOPE 28, FFLUC_R_SQUARED 0.571, PBLUC_HILL_SLOPE 16, PBLUC_R_SQUARED 0.0407, read-out: LUCIFERASE INFECTION ASSAY - IC50) is 9.9 µM.
For the molecule `CCc1ccc(/C=C/c2ccc3cccc(O)c3n2)cc1`, the IC90 worked out at 0.313 µM. Also, under “FFLUC_HILL_SLOPE 27.9, FFLUC_R_SQUARED 0.597, HEPG2TOX_HILL_SLOPE 1.09, HEPG2TOX_R_SQUARED 0.82, PBLUC_HILL_SLOPE 3.2, PBLUC_R_SQUARED 0.533, read-out: LUCIFERASE INFECTION ASSAY - IC50”, the IC50 was determined as 0.157 µM.
Take `Cc1cccc(Oc2ccc(NC(=O)c3cccc(S(=O)(=O)N(C)C4CCCCC4)c3)cc2)c1`: the IC90 stood at 9.44 µM. Further, under “FFLUC_HILL_SLOPE 23.3, FFLUC_R_SQUARED 0.81, HEPG2TOX_HILL_SLOPE 1.26, HEPG2TOX_R_SQUARED 0.904, PBLUC_HILL_SLOPE 3.5, PBLUC_R_SQUARED 0.0916, read-out: LUCIFERASE INFECTION ASSAY - IC50”, the IC50 came out at 5.04 µM.
In the case of `O=[N+]([O-])c1ccc(Sc2nc(-c3ccccc3)c(-c3ccccc3)[nH]2)cc1`, the IC90 is over 8.84 µM. Besides, where the note is “FFLUC_HILL_SLOPE 23.8, FFLUC_R_SQUARED 0.615, read-out: LUCIFERASE INFECTION ASSAY - IC50”, the concentration for half-maximal inhibition (IC50) was over 8.84 µM.
Consider `COc1ccc(C(=O)Nc2ccc3nc(-c4ccccc4)nn3c2)cc1F`, for which the IC90 was over 10 µM. Further, the IC50 (FFLUC_HILL_SLOPE 22.9, FFLUC_R_SQUARED 0.117, read-out: LUCIFERASE INFECTION ASSAY - IC50) was over 10 µM.
Regarding `COc1ccc(S(=O)(=O)N2CCCCC2)cc1NC(=O)c1nn(CC(C)C)c(=O)c2ccccc12`, the IC90 amounted to 4.38 µM. For the same molecule, for the setting “FFLUC_HILL_SLOPE 27.6, FFLUC_R_SQUARED 0.604, PBLUC_HILL_SLOPE 11.9, PBLUC_R_SQUARED 0.273, read-out: LUCIFERASE INFECTION ASSAY - IC50”, the IC50 worked out at 3.64 µM.

Values taken from ChEMBL document CHEMBL4483862, “Open-source discovery of chemical leads for next-generation chemoprotective antimalarials” (2018).
